Paper PMC3646771, “The Second Intracellular Loop of the Human Cannabinoid CB2 Receptor Governs G Protein Coupling in Coordination with the Carboxyl Terminal Domain” (PLoS ONE, 2013)

Assays:
Experiment in all cases: CRE-luciferase cAMP reporter, HEK293
Type in all cases: cell-based, Homo sapiens
[1] = test system: T1, CB2-ICL2ICL3Cter (i2i3Cter); conditions: agonist; inhibition of cAMP elevated by 10 µM forskolin, 4 h, 37 °C; pEC50 8.48±0.22
T1 construct: gene CNR2; Flag-tagged CB2 with second and third intracellular loops and C-terminal tail of CB1; HEK293
Description: CRE-luciferase cAMP reporter, HEK293 on CB2-ICL2ICL3Cter (i2i3Cter)

CB2-ICL2Cter (i2Cter) = test system: T2, CB2-ICL2Cter (i2Cter); conditions: agonist; stimulation of cAMP, no forskolin, 4 h, 37 °C; pEC50 6.85±0.1
T2 construct: gene CNR2; Flag-tagged CB2 with second intracellular loop and C-terminal tail of CB1; HEK293
Description: CRE-luciferase cAMP reporter, HEK293 on CB2-ICL2Cter (i2Cter)

CB2-ICL3 (i3) = test system: T3, CB2-ICL3 (i3); conditions: agonist; inhibition of cAMP elevated by 10 µM forskolin, 4 h, 37 °C; pEC50 7.99±0.22
T3 construct: gene CNR2; Flag-tagged CB2 with third intracellular loop replaced by that of CB1; HEK293
Description: CRE-luciferase cAMP reporter, HEK293 on CB2-ICL3 (i3)

CB2-ICL2ICL3 (i2i3) = test system: T4, CB2-ICL2ICL3 (i2i3); conditions: agonist; inhibition of cAMP elevated by 10 µM forskolin, 4 h, 37 °C; pEC50 8.47±0.15
T4 construct: gene CNR2; Flag-tagged CB2 with second and third intracellular loops of CB1; HEK293
Description: CRE-luciferase cAMP reporter, HEK293 on CB2-ICL2ICL3 (i2i3)

CB2-ICL2 (i2) = test system: T5, CB2-ICL2 (i2); conditions: agonist; inhibition of cAMP elevated by 10 µM forskolin, 4 h, 37 °C; pEC50 7.74±0.09
T5 construct: gene CNR2; Flag-tagged CB2 with second intracellular loop replaced by that of CB1; HEK293
Description: CRE-luciferase cAMP reporter, HEK293 on CB2-ICL2 (i2)

CB2-Cter (Cter) = test system: T6, CB2-Cter (Cter); conditions: agonist, 4 h, 37 °C
T6 construct: gene CNR2; Flag-tagged CB2 with C-terminal tail replaced by that of CB1; HEK293
Description: CRE-luciferase cAMP reporter, HEK293 on CB2-Cter (Cter)

CB2-ICL1 (i1) = test system: T7, CB2-ICL1 (i1); conditions: agonist; inhibition of cAMP elevated by 10 µM forskolin, 4 h, 37 °C; pEC50 8.17±0.19
T7 construct: gene CNR2; Flag-tagged CB2 with first intracellular loop replaced by that of CB1; HEK293
Description: CRE-luciferase cAMP reporter, HEK293 on CB2-ICL1 (i1)

Cc1c(C(=O)c2cccc3ccccc23)c2cccc3c2n1[C@H](CN1CCOCC1)CO3 [WIN55,212-2]
EC50 [1]: 4.4 ± 2.4 nM | EC50 (CB2-ICL2Cter (i2Cter)): 149 ± 35 nM | EC50 (CB2-ICL3 (i3)): 13.4 ± 7.3 nM | EC50 (CB2-ICL2ICL3 (i2i3)): 3.8 ± 1.2 nM | EC50 (CB2-ICL2 (i2)): 19.2 ± 4.4 nM | EC50 (CB2-Cter (Cter); P139LCter, stimulation of cAMP, no forskolin, pEC50 7.53±0.11): 29.8 ± 7.1 nM | EC50 (CB2-Cter (Cter); inhibition of cAMP elevated by 10 µM forskolin, pEC50 8.23±0.03): 5.9 ± 0.4 nM | EC50 (CB2-ICL1 (i1)): 8 ± 2.8 nM
